Tested on: quiescent A431 cells
Assay: Epic DMR agonist mode (primary profile) in quiescent A431 cells
Format: cell-based, human
Description: Epic® wavelength interrogation system (Corning Inc., Corning, N.Y.) was used for whole cell sensing. This system consists of a temperature-control unit, an optical detection unit, and an on-board liquid handling unit with robotics. The detection unit is centered on integrated fiber optics, and enables kinetic measures of cellular responses with a time interval of ±15 sec.
For biosensor cellular assays, molecule solutions were made by diluting the stored concentrated solutions with the HBSS (1× Hanks balanced salt solution, plus 20 mM Hepes, pH 7.1), and transferred into a 384 well polypropylene molecule storage plate to prepare a molecule source plate. Both molecule and marker source plates were made separately when a two-step assay was performed. In parallel, the cells were washed twice with the HBSS and maintained in 30 μl of the HBSS to prepare a cell assay plate. Both the cell assay plate and the molecule and marker source plate(s) were then incubated in the hotel of the reader system. After ˜1 hr of incubation the baseline wavelengths of all biosensors in the cell assay microplate were recorded and normalized to zero. Afterwards, a 2 to 10 minute continuous recording was carried out to establish a baseline, and to ensure that the cells reached a steady state. Cellular responses were then triggered by pipetting 10 μl of the marker solutions into the cell assay plate using the on-board liquid handler.
A DMR index was generated for four ligand molecules. Quiescent A431 and proliferating A549 cells were separately exposed to the ligand molecules for about 1 hr to generate their primary profiles, followed by stimulation with each marker at a fixed concentration (as mentioned in FIGS. 7 and 8) for another 1 hr or so to generate secondary profiles of the molecule against the panels of markers in both types of cells. Next, one or more specific DMR parameters were chosen as a readout for plotting the DMR index of the molecule. For the pinacidil DMR response in A549, the amplitude of the N-DMR (i.e., the amplitude 30 min after stimulation) was chosen. […]

EGF: natural agonist for endogenous EGF receptor in A431
EC80 to trigger the DMR signal (fully quiescent A431 cells): ~32 nM | DMR signal triggered (fully quiescent A431 cells, EGF ~32 nM, three phases P-DMR, N-DMR, RP-DMR, FIG. 4): distinct and robust DMR signal | DMR response as a function of dose (quiescent A431 cells, data not shown): dose-dependent response

Reference: patent publication US20100130736A1, “METHODS OF CREATING AN INDEX” (priority 2008, published 2010)
